These results are taken from patent US20260274876A1, “3-PYRROLIDINE-INDOLE DIMERS AS SEROTONERGIC AGENTS USEFUL FOR THE TREATMENT OF DISORDERS RELATED THERETO” (MINDSET PHARMA INC., priority 2022, published 2026).

Series [1] in a line: Intestinal mucosal permeation using Caco-2 cell monolayers. The following applies: human; for Papp A→B at 2 h, 5 µM / Papp B→A at 2 h, 5 µM / efflux ratio at 2 h, 5 μM: Caco-2, pH 7.4. How it is done:
Plate was returned to incubator.
Vortexed for 5 minutes. […] Incubated at 37° C. for 30 minutes.
On the technique in general: Passage across Caco-2 layers is used to estimate intestinal permeability.

A further series can be described thus: Plasma stability, rat. It is filed as in vitro ADME. How it is done:
(§1) • a. […] The final concentration of organic solvents was 0.5%. The assay was performed in duplicated. • b.
(§2) All calculations were carried out using Microsoft Excel.

The target in a further series is human 5-HT2A receptor (Homo sapiens, UniProt P28223). As to the kind of experiment: Human 5-HT2A radioligand binding assay ([3H]-ketanserin). How it is done: The objective of this study was to evaluate the binding properties of exemplary compounds of Formula I on 5-hydroxytryptamine receptor 2A (5-HT2A).
Chain of human 5-HT2A receptor (P28223 whole entry): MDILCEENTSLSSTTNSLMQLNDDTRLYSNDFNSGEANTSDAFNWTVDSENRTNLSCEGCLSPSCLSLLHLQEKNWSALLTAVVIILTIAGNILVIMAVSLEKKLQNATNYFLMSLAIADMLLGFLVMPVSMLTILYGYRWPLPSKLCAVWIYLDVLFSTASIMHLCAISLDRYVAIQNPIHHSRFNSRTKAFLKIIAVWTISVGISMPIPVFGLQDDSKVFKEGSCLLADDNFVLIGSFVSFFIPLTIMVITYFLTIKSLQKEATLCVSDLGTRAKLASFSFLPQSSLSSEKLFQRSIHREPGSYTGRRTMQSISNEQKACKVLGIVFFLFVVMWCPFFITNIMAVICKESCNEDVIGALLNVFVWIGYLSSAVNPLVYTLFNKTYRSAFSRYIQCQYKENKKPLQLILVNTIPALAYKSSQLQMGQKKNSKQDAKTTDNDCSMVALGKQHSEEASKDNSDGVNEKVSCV
• 1. The assay buffer was prepared following the table below.
• 2. 8 doses of reference and test compounds starting from 10 mM stock solution as required was prepared by 5-fold serial dilutions with 100% (v/v) DMSO. • 3. UniFilter-96 GF/B plate was pretreated: • i. 50 μl/well of 0.5% (v/v) PEI was added to […]. The plates were sealed and incubated at […] for 3 hrs. • ii. After incubation, the plates were washed 3 times with ice-cold wash buffer (50 mM Tris, pH7.4). • 4. The assay plate was prepared: • i. Cell membrane was diluted with assay buffer and 330 μl/well was added to 96 round deep well plates to reach a concentration of 20 μg/well. • ii. 8 concentrations of reference or test compounds were prepared and 110 μl/well was added to 96 round deep well plates. • iii. [3H]-ketanserin was diluted with assay buffer to 5 nM (5×final concentration) and 110 μl/well was added to 96 round deep well plates. • 5. The plate was centrifuged at 1000 rpm for 30 secs and then agitated at 600 rpm, R.T. for 5 min. • 6. The plates were sealed and the plate incubated at 279C for 90 min. • 7. The incubation was stopped by vacuum filtration onto GF/B filter plates followed by 4 times washing with ice-cold wash buffer (50 mM Tris, pH7.4). • 8. The plates were dried at 379C for 45 min. • 8. The filter plates were sealed and 40 μl/well of scintillation cocktail was added. • 10. The plate was read by using a Microbeta^2 microplate counter.
• 1. For reference and test compounds, the results were expressed as % Inhibition, using the normalization equation: N=100−100×(U−C2)/(C1−C2), where U is the unknown value, C1 is the average of high controls, and C2 is the average of low controls. • 2. The IC50 was determined by fitting percentage of inhibition as a function of compound concentrations with Hill equation using XLfit.

Another series in a line: Plasma stability, human. It is filed as in vitro ADME. How it is done: as §1, §2
The next series can be described thus: Plasma stability, mouse. The class given is in vitro ADME. How it is done:
as §1, §2

The nature of series [2]: Liver microsomes stability, mouse. Conditions: mouse liver microsomes, 60 min. How it is done:
(§3) 40 μL of 10 mM NADPH solution was added to each well. The final concentration of NADPH was 1 mM. The negative control samples were prepared by replacing NADPH with 40 μL of ultra-pure H2O. Samples were prepared in duplicate. Negative controls were prepared in singlet.
(§4) This study was performed in duplicate.
(§5) LC/MS analysis was performed for all samples from this study using a Shimadzu liquid chromatograph separation system equipped with degasser DGU-20A5R; solvent delivery unit LC-30AD; system controller SIL-30AC; column oven CTO-30A; CTC Analytics HTC PAL System. Mass spectrometric analysis was performed using a Triple Quad™ 5500 instrument.
as §2
(§6) All calculations were carried out using Microsoft Excel. Peak areas were determined from extracted ion chromatograms.
In general terms: Liver microsomes are vesicles of endoplasmic reticulum, rich in cytochrome P450 enzymes.

Series [3] can be described thus: Liver microsomes stability, human. Conditions: human liver microsomes, without cofactors, 60 min. How it is done: as §3, §4, §5, §2, §6
Series [4] is described as follows: Liver microsomes stability, rat. Conditions: rat liver microsomes, 60 min. How it is done:
as §3, §4, §5, §2, §6

[5] abbreviates: Caco-2, pH 7.4, Percentage recovery (%) A→B, Caco-2, A→B.
The mark [6] stands for this setting: Caco-2, pH 7.4, Percentage recovery (%) B→A, Caco-2, B→A.
Where [7] appears, read: 37° C., N.A. = no peak detected at 30 min.

A word on the Papp A→B: it is how fast a substance crosses the layer from the apical side. A low value points to poor permeation. The term Papp B→A denotes the apparent permeability from the basolateral to the apical side of a cell layer. Broadly, the efflux ratio is the permeability from basolateral to apical divided by that in the opposite direction, in the common usage. For the compound `CC(C)NCC(O)COc1cccc2ccccc12` (stereo not shown) [Propranolol], in series [1], the Papp A→B at 2 h, 5 µM worked out at 33.5 ×10⁻⁶ cm/s; the Papp B→A at 2 h, 5 µM amounted to 23.1 ×10⁻⁶ cm/s; the efflux ratio at 2 h, 5 μM turned out to be 0.69. Further, in series [1] (setting [5]), the recovery at 2 h, 5 μM was determined as 91.3%. Further, the recovery at 2 h, 5 μM in series [1] (setting [6]) was found to be 92.6%.

In the case of `CC[C@H](C)C(=O)O[C@H]1C[C@@H](C)C=C2C=C[C@H](C)[C@H](CC[C@@H]3C[C@@H](O)CC(=O)O3)[C@H]21` [Lovastatin, reference compound], the “Remaining Percentage (%) 0 min” value in the series “Plasma stability, rat” (0 min) turned out to be 100.00%. Moreover, the “Remaining Percentage (%) 30 min” value in the series “Plasma stability, rat” (30 min) stood at 0.00%. The “Remaining Percentage (%) 60 min” value in the series “Plasma stability, rat” (60 min) turned out to be 0.00%. In the series “Plasma stability, rat” (120 min), the “Remaining Percentage (%) 120 min” value is given as 0.00%. The “Remaining Percentage (%) 180 min” value in “Plasma stability, rat” (180 min) is reported as 0.00%. Further, in the series “Plasma stability, rat” (240 min), the “Remaining Percentage (%) 240 min” value is given as 0.00%.

Broadly, the IC50 is the concentration that gives 50% inhibition. A higher IC50 goes with a need for much substance. For the compound `CN(C)CCc1c[nH]c2cccc(OP(=O)(O)O)c12` [Psilocybin, 4-phosphoryloxy-N,N-dimethyltrypatmine], in series [1], the Papp A→B at 2 h, 5 µM worked out at 0.06 ×10⁻⁶ cm/s; the Papp B→A at 2 h, 5 µM came to 0.03 ×10⁻⁶ cm/s; the efflux ratio at 2 h, 5 μM worked out at 0.45. In addition, the recovery at 2 h, 5 μM in series [1] (setting [5]) was 41.4%. This compound showed a recovery at 2 h, 5 μM in series [1] (setting [6]) of 104%. At human 5-HT2A receptor, the half-inhibitory concentration (IC50) was 4.25 µM.

The half-life is the time in which the quantity being followed falls by half. Read a high half-life as slow decline. As to `CC(C)[N+](C)(CCOC(=O)C1c2ccccc2Oc2ccccc21)C(C)C` [Propantheline, reference compound], the “Remaining Percentage (%) 0 min” value is recorded as 100.00% in the series “Plasma stability, human” (0 min) and 100.00% in “Plasma stability, mouse” (0 min). Also, the half-life at 5 μM in the series “Plasma stability, human” (setting [7]) stood at 9.53 min; in the series “Plasma stability, mouse” (setting [7]), 34.4 min. The “Remaining Percentage (%) 30 min” value in “Plasma stability, human” (30 min) is 18.68%; in the series “Plasma stability, mouse” (30 min), 65.32%. Besides, the “Remaining Percentage (%) 60 min” value is reported as 1.28% in the series “Plasma stability, human” (60 min) and 32.49% in “Plasma stability, mouse” (60 min). Also, the “Remaining Percentage (%) 120 min” value in “Plasma stability, mouse” (120 min) is given as 9.12%. In addition, the “Remaining Percentage (%) 180 min” value in the series “Plasma stability, mouse” (180 min) turned out to be 2.90%. Besides, the “Remaining Percentage (%) 240 min” value in the series “Plasma stability, mouse” (240 min) is 0.87%.

As to `C[C@H]1O[C@@H](O[C@H]2[C@@H](O)C[C@H](O[C@H]3[C@@H](O)C[C@H](O[C@H]4CC[C@@]5(C)[C@H](CC[C@@H]6[C@@H]5C[C@@H](O)[C@]5(C)[C@@H](C7=CC(=O)OC7)CC[C@]65O)C4)O[C@@H]3C)O[C@@H]2C)C[C@H](O)[C@@H]1O` [Digoxin], in series [1], the apical-to-basolateral permeability (Papp A→B) at 2 h, 5 µM amounted to 0.53 ×10⁻⁶ cm/s; the Papp B→A at 2 h, 5 µM is 18.9 ×10⁻⁶ cm/s; the efflux ratio at 2 h, 5 μM is 35.4. Besides, in series [1] (setting [5]), the recovery at 2 h, 5 μM is 86.6%. The compound also yielded a recovery at 2 h, 5 μM in series [1] (setting [6]) of 104%.

As to `COc1cc2nc(N3CCN(C(=O)c4ccco4)CC3)nc(N)c2cc1OC` [Prazosin], in series [1], the Papp A→B at 2 h, 5 µM came to 10.1 ×10⁻⁶ cm/s; the Papp B→A at 2 h, 5 µM was determined as 33.1 ×10⁻⁶ cm/s; the efflux ratio at 2 h, 5 μM is 3.28. Also, the recovery at 2 h, 5 μM in series [1] (setting [5]) was 79.5%. Moreover, in series [1] (setting [6]), the recovery at 2 h, 5 μM came to 105%.

For `O=C(O)Cc1ccccc1Nc1c(Cl)cccc1Cl` [Diclofenac, reference compound], the “Remaining Percentage (%) after 60 min, Mouse, With cofactors” value in series [2] (with cofactors) amounted to 35.94%. Besides, the “Remaining Percentage (%) after 60 min, Mouse, Without cofactors” value in series [2] (without cofactors) is 97.86%. Besides, the “Remaining Percentage (%) after 60 min, Human, Without cofactors” value in series [3] came to 95.90%. Besides, in series [4] (with cofactors), the “Remaining Percentage (%) after 60 min, Rat, With cofactors” value was found to be 7.11%. Besides, the “Remaining Percentage (%) after 60 min, Rat, Without cofactors” value in series [4] (without cofactors) is 97.86%.
